From ChEMBL document CHEMBL3627713, “Triazole linked mono carbonyl curcumin-isatin bifunctional hybrids as novel anti tubulin agents: Design, synthesis, biological evaluation and molecular modeling studies” (Bioorg Med Chem, 2015)

Test system: COLO 205
Assay: Cytotoxicity against human COLO205 cells assessed as growth inhibition at 50 uM after 48 hrs by sulforhodamine B assay relative to control
Type: functional
Details: COLO 205, 48 h, read-out: GI

| SMILES | inhibition of growth at 50 µM [%] |
| --- | --- |
| COc1cc(/C=C/C(=O)/C=C/c2cccs2)ccc1OCc1cn(CCN2C(=O)C(=O)c3cc(Cl)ccc32)nn1 | 35 |
| COc1cc(/C=C/C(=O)/C=C/c2cccc3ccccc23)ccc1OCc1cn(CCN2C(=O)C(=O)c3cc(Cl)ccc32)nn1 | 74 |
| COc1cc(/C=C/C(=O)/C=C/c2ccc(Cl)cc2)ccc1OCc1cn(CCN2C(=O)C(=O)c3cc(Br)ccc32)nn1 | 24 |
| COc1cc(/C=C/C(=O)/C=C/c2ccco2)ccc1OCc1cn(CCN2C(=O)C(=O)c3cc(Br)ccc32)nn1 | 33 |
| COc1cc(/C=C/C(=O)/C=C/c2cccc([N+](=O)[O-])c2)ccc1OCc1cn(CCN2C(=O)C(=O)c3ccccc32)nn1 | 22 |
| COc1cc(/C=C/C(=O)/C=C/c2cccs2)ccc1OCc1cn(CCN2C(=O)C(=O)c3cc(Br)ccc32)nn1 | 30 |
| COc1cc(/C=C/C(=O)/C=C/c2cccs2)ccc1OCc1cn(CCN2C(=O)C(=O)c3ccccc32)nn1 | 66 |
| COc1cc(/C=C/C(=O)/C=C/c2ccc([N+](=O)[O-])cc2)ccc1OCc1cn(CCN2C(=O)C(=O)c3ccccc32)nn1 | 35 |
| COc1ccccc1/C=C/C(=O)/C=C/c1ccc(OCc2cn(CCN3C(=O)C(=O)c4cc(Cl)ccc43)nn2)c(OC)c1 | 47 |
| COc1cccc(/C=C/C(=O)/C=C/c2ccc(OCc3cn(CCN4C(=O)C(=O)c5cc(Br)ccc54)nn3)c(OC)c2)c1 | 56 |
| COc1cc(/C=C/C(=O)/C=C/c2cccc(Br)c2)ccc1OCc1cn(CCN2C(=O)C(=O)c3cc(Cl)ccc32)nn1 | 10 |
| COc1cc(/C=C/C(=O)/C=C/c2ccc(Cl)cc2)ccc1OCc1cn(CCN2C(=O)C(=O)c3cc(Cl)ccc32)nn1 | 29 |
| COc1cc(/C=C/C(=O)/C=C/c2cccc3ccccc23)ccc1OCc1cn(CCN2C(=O)C(=O)c3cc(Br)ccc32)nn1 | 40 |
| COc1cc(/C=C/C(=O)/C=C/c2ccc([N+](=O)[O-])cc2)ccc1OCc1cn(CCN2C(=O)C(=O)c3cc(Br)ccc32)nn1 | 10 |

Test system: COLO 205
Assay: Cytotoxicity against human COLO205 cells assessed as growth inhibition after 48 hrs by sulforhodamine B assay
Type: functional, cell-based
Details: COLO 205, 48 h

| SMILES | IC50 [µM] |
| --- | --- |
| COc1cc(/C=C/C(=O)/C=C/c2cccc3ccccc23)ccc1OCc1cn(CCN2C(=O)C(=O)c3cc(Cl)ccc32)nn1 | 13.6 |
| COc1cc(/C=C/C(=O)/C=C/c2cccs2)ccc1OCc1cn(CCN2C(=O)C(=O)c3ccccc32)nn1 | 7.72 |

Test system: A549
Assay: Cytotoxicity against human A549 cells assessed as growth inhibition at 50 uM after 48 hrs by sulforhodamine B assay relative to control
Type: functional
Details: A549, 48 h, read-out: GI

| SMILES | inhibition of growth at 50 µM [%] |
| --- | --- |
| COc1ccccc1/C=C/C(=O)/C=C/c1ccc(OCc2cn(CCN3C(=O)C(=O)c4cc(Cl)ccc43)nn2)c(OC)c1 | 11 |

Test system: THP-1
Assay: Cytotoxicity against human THP1 cells assessed as growth inhibition at 50 uM after 48 hrs by sulforhodamine B assay relative to control
Type: functional
Details: THP-1, 48 h, read-out: GI

| SMILES | inhibition of growth at 50 µM [%] |
| --- | --- |
| COc1cc(/C=C/C(=O)/C=C/c2cccs2)ccc1OCc1cn(CCN2C(=O)C(=O)c3cc(Cl)ccc32)nn1 | 38 |
| COc1cc(/C=C/C(=O)/C=C/c2cccc3ccccc23)ccc1OCc1cn(CCN2C(=O)C(=O)c3cc(Cl)ccc32)nn1 | 76 |
| COc1cc(/C=C/C(=O)/C=C/c2ccc(Cl)cc2)ccc1OCc1cn(CCN2C(=O)C(=O)c3cc(Br)ccc32)nn1 | 25 |
| COc1cc(/C=C/C(=O)/C=C/c2ccco2)ccc1OCc1cn(CCN2C(=O)C(=O)c3cc(Br)ccc32)nn1 | 37 |
| COc1cc(/C=C/C(=O)/C=C/c2cccc([N+](=O)[O-])c2)ccc1OCc1cn(CCN2C(=O)C(=O)c3ccccc32)nn1 | 24 |
| COc1cc(/C=C/C(=O)/C=C/c2cccs2)ccc1OCc1cn(CCN2C(=O)C(=O)c3cc(Br)ccc32)nn1 | 31 |
| COc1cc(/C=C/C(=O)/C=C/c2cccs2)ccc1OCc1cn(CCN2C(=O)C(=O)c3ccccc32)nn1 | 71 |
| COc1cc(/C=C/C(=O)/C=C/c2ccc([N+](=O)[O-])cc2)ccc1OCc1cn(CCN2C(=O)C(=O)c3ccccc32)nn1 | 35 |
| COc1ccccc1/C=C/C(=O)/C=C/c1ccc(OCc2cn(CCN3C(=O)C(=O)c4cc(Cl)ccc43)nn2)c(OC)c1 | 43 |
| COc1cccc(/C=C/C(=O)/C=C/c2ccc(OCc3cn(CCN4C(=O)C(=O)c5cc(Br)ccc54)nn3)c(OC)c2)c1 | 54 |
| COc1cc(/C=C/C(=O)/C=C/c2cccc(Br)c2)ccc1OCc1cn(CCN2C(=O)C(=O)c3cc(Cl)ccc32)nn1 | 12 |
| COc1cc(/C=C/C(=O)/C=C/c2ccc(Cl)cc2)ccc1OCc1cn(CCN2C(=O)C(=O)c3cc(Cl)ccc32)nn1 | 30 |
| COc1cc(/C=C/C(=O)/C=C/c2cccc3ccccc23)ccc1OCc1cn(CCN2C(=O)C(=O)c3cc(Br)ccc32)nn1 | 40 |

Test system: PC-3
Assay: Cytotoxicity against human PC3 cells assessed as growth inhibition at 50 uM after 48 hrs by sulforhodamine B assay relative to control
Type: functional
Details: PC-3, 48 h, read-out: GI

| SMILES | inhibition of growth at 50 µM [%] |
| --- | --- |
| COc1cc(/C=C/C(=O)/C=C/c2cccs2)ccc1OCc1cn(CCN2C(=O)C(=O)c3cc(Cl)ccc32)nn1 | 37 |
| COc1cc(/C=C/C(=O)/C=C/c2cccc3ccccc23)ccc1OCc1cn(CCN2C(=O)C(=O)c3cc(Cl)ccc32)nn1 | 71 |
| COc1cc(/C=C/C(=O)/C=C/c2ccc(Cl)cc2)ccc1OCc1cn(CCN2C(=O)C(=O)c3cc(Br)ccc32)nn1 | 23 |
| COc1cc(/C=C/C(=O)/C=C/c2ccco2)ccc1OCc1cn(CCN2C(=O)C(=O)c3cc(Br)ccc32)nn1 | 31 |
| COc1cc(/C=C/C(=O)/C=C/c2cccc([N+](=O)[O-])c2)ccc1OCc1cn(CCN2C(=O)C(=O)c3ccccc32)nn1 | 20 |
| COc1cc(/C=C/C(=O)/C=C/c2cccs2)ccc1OCc1cn(CCN2C(=O)C(=O)c3cc(Br)ccc32)nn1 | 28 |
| COc1cc(/C=C/C(=O)/C=C/c2cccs2)ccc1OCc1cn(CCN2C(=O)C(=O)c3ccccc32)nn1 | 63 |
| COc1cc(/C=C/C(=O)/C=C/c2ccc([N+](=O)[O-])cc2)ccc1OCc1cn(CCN2C(=O)C(=O)c3ccccc32)nn1 | 33 |
| COc1ccccc1/C=C/C(=O)/C=C/c1ccc(OCc2cn(CCN3C(=O)C(=O)c4cc(Cl)ccc43)nn2)c(OC)c1 | 42 |
| COc1cccc(/C=C/C(=O)/C=C/c2ccc(OCc3cn(CCN4C(=O)C(=O)c5cc(Br)ccc54)nn3)c(OC)c2)c1 | 51 |
| COc1cc(/C=C/C(=O)/C=C/c2ccc([N+](=O)[O-])cc2)ccc1OCc1cn(CCN2C(=O)C(=O)c3cc(Cl)ccc32)nn1 | 10 |
| COc1cc(/C=C/C(=O)/C=C/c2cccc(Br)c2)ccc1OCc1cn(CCN2C(=O)C(=O)c3cc(Cl)ccc32)nn1 | 14 |
| COc1cc(/C=C/C(=O)/C=C/c2ccc(Cl)cc2)ccc1OCc1cn(CCN2C(=O)C(=O)c3cc(Cl)ccc32)nn1 | 25 |
| COc1cc(/C=C/C(=O)/C=C/c2cccc3ccccc23)ccc1OCc1cn(CCN2C(=O)C(=O)c3cc(Br)ccc32)nn1 | 37 |
| COc1cc(/C=C/C(=O)/C=C/c2ccc([N+](=O)[O-])cc2)ccc1OCc1cn(CCN2C(=O)C(=O)c3cc(Br)ccc32)nn1 | 10 |

Test system: HCT-116
Assay: Cytotoxicity against human HCT116 cells assessed as growth inhibition at 50 uM after 48 hrs by sulforhodamine B assay relative to control
Type: functional
Details: HCT-116, 48 h, read-out: GI

| SMILES | inhibition of growth at 50 µM [%] |
| --- | --- |
| COc1cc(/C=C/C(=O)/C=C/c2cccs2)ccc1OCc1cn(CCN2C(=O)C(=O)c3cc(Cl)ccc32)nn1 | 44 |
| COc1cc(/C=C/C(=O)/C=C/c2cccc3ccccc23)ccc1OCc1cn(CCN2C(=O)C(=O)c3cc(Cl)ccc32)nn1 | 78 |
| COc1cc(/C=C/C(=O)/C=C/c2ccc(Cl)cc2)ccc1OCc1cn(CCN2C(=O)C(=O)c3cc(Br)ccc32)nn1 | 29 |
| COc1cc(/C=C/C(=O)/C=C/c2ccco2)ccc1OCc1cn(CCN2C(=O)C(=O)c3cc(Br)ccc32)nn1 | 39 |
| COc1cc(/C=C/C(=O)/C=C/c2cccc([N+](=O)[O-])c2)ccc1OCc1cn(CCN2C(=O)C(=O)c3ccccc32)nn1 | 25 |
| COc1cc(/C=C/C(=O)/C=C/c2cccs2)ccc1OCc1cn(CCN2C(=O)C(=O)c3cc(Br)ccc32)nn1 | 34 |
| COc1cc(/C=C/C(=O)/C=C/c2cccs2)ccc1OCc1cn(CCN2C(=O)C(=O)c3ccccc32)nn1 | 76 |
| COc1cc(/C=C/C(=O)/C=C/c2ccc([N+](=O)[O-])cc2)ccc1OCc1cn(CCN2C(=O)C(=O)c3ccccc32)nn1 | 39 |
| COc1ccccc1/C=C/C(=O)/C=C/c1ccc(OCc2cn(CCN3C(=O)C(=O)c4cc(Cl)ccc43)nn2)c(OC)c1 | 50 |
| COc1cccc(/C=C/C(=O)/C=C/c2ccc(OCc3cn(CCN4C(=O)C(=O)c5cc(Br)ccc54)nn3)c(OC)c2)c1 | 57 |
| COc1cc(/C=C/C(=O)/C=C/c2ccc([N+](=O)[O-])cc2)ccc1OCc1cn(CCN2C(=O)C(=O)c3cc(Cl)ccc32)nn1 | 11 |
| COc1cc(/C=C/C(=O)/C=C/c2cccc(Br)c2)ccc1OCc1cn(CCN2C(=O)C(=O)c3cc(Cl)ccc32)nn1 | 19 |
| COc1cc(/C=C/C(=O)/C=C/c2ccc(Cl)cc2)ccc1OCc1cn(CCN2C(=O)C(=O)c3cc(Cl)ccc32)nn1 | 36 |
| COc1cc(/C=C/C(=O)/C=C/c2cccc3ccccc23)ccc1OCc1cn(CCN2C(=O)C(=O)c3cc(Br)ccc32)nn1 | 44 |
| COc1cc(/C=C/C(=O)/C=C/c2ccc([N+](=O)[O-])cc2)ccc1OCc1cn(CCN2C(=O)C(=O)c3cc(Br)ccc32)nn1 | 10 |

Test system: CAKI-1
Assay: Cytotoxicity against human Caki1 cells assessed as growth inhibition at 50 uM after 48 hrs by sulforhodamine B assay relative to control
Type: functional
Details: CAKI-1, 48 h, read-out: GI

| SMILES | inhibition of growth at 50 µM [%] |
| --- | --- |
| COc1cc(/C=C/C(=O)/C=C/c2cccs2)ccc1OCc1cn(CCN2C(=O)C(=O)c3ccccc32)nn1 | 10 |

Test system: HCT-116
Assay: Cytotoxicity against human HCT116 cells assessed as growth inhibition after 48 hrs by sulforhodamine B assay
Type: functional, cell-based
Details: HCT-116, 48 h

| SMILES | IC50 [µM] |
| --- | --- |
| COc1cc(/C=C/C(=O)/C=C/c2cccc3ccccc23)ccc1OCc1cn(CCN2C(=O)C(=O)c3cc(Cl)ccc32)nn1 | 9.34 |
| COc1cc(/C=C/C(=O)/C=C/c2cccs2)ccc1OCc1cn(CCN2C(=O)C(=O)c3ccccc32)nn1 | 5.09 |

Test system: THP-1
Assay: Cytotoxicity against human THP1 cells assessed as growth inhibition after 48 hrs by sulforhodamine B assay
Type: functional, cell-based
Details: THP-1, 48 h

| SMILES | IC50 [µM] |
| --- | --- |
| COc1cc(/C=C/C(=O)/C=C/c2cccc3ccccc23)ccc1OCc1cn(CCN2C(=O)C(=O)c3cc(Cl)ccc32)nn1 | 11.1 |
| COc1cc(/C=C/C(=O)/C=C/c2cccs2)ccc1OCc1cn(CCN2C(=O)C(=O)c3ccccc32)nn1 | 6.83 |

Test system: PC-3
Assay: Cytotoxicity against human PC3 cells assessed as growth inhibition after 48 hrs by sulforhodamine B assay
Type: functional, cell-based
Details: PC-3, 48 h

| SMILES | IC50 [µM] |
| --- | --- |
| COc1cc(/C=C/C(=O)/C=C/c2cccc3ccccc23)ccc1OCc1cn(CCN2C(=O)C(=O)c3cc(Cl)ccc32)nn1 | 14.1 |
| COc1cc(/C=C/C(=O)/C=C/c2cccs2)ccc1OCc1cn(CCN2C(=O)C(=O)c3ccccc32)nn1 | 8.51 |
